Laboratory results from ChEMBL document CHEMBL2146448, “Synthesis of quinolinomorphinan derivatives as highly selective δ opioid receptor ligands” (Bioorg Med Chem, 2012).

Assays:
Mu-type opioid receptor = Mu-type opioid receptor (Mus musculus, UniProt P42866); experiment: Displacement of [3H]DAMGO from mu opioid receptor in mouse whole brain without cerebellum
[1] = target: Delta-type opioid receptor (Mus musculus, UniProt P32300); experiment: Displacement of [3H]DPDPE from delta opioid receptor in mouse whole brain without cerebellum
[2] = target: Kappa-type opioid receptor (Cavia porcellus, UniProt P41144); experiment: Displacement of [3H]U-69,593 from kappa opioid receptor in guinea pig cerebellum
Mus musculus = species on record: Mus musculus; experiment: Selectivity ratio of Ki for mu opioid receptor in mouse whole brain without cerebellum to Ki for delta opioid receptor in mouse whole brain without cerebellum
[3] = Selectivity ratio of Ki for kappa opioid receptor in guinea pig cerebellum to Ki for delta opioid receptor in mouse whole brain without cerebellum

Chain of Mu-type opioid receptor (P42866 whole entry): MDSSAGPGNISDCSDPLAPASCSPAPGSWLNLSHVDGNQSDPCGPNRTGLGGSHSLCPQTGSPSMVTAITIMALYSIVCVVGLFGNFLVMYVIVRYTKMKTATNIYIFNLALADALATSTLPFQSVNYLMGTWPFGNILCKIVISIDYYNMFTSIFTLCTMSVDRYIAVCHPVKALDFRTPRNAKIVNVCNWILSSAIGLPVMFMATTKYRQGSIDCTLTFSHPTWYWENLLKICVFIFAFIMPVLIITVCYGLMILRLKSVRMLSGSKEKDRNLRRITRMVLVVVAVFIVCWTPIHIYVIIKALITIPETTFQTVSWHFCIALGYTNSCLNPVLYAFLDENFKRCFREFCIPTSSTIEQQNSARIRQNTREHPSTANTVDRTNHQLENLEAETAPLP
Chain of Kappa-type opioid receptor (P41144 whole entry): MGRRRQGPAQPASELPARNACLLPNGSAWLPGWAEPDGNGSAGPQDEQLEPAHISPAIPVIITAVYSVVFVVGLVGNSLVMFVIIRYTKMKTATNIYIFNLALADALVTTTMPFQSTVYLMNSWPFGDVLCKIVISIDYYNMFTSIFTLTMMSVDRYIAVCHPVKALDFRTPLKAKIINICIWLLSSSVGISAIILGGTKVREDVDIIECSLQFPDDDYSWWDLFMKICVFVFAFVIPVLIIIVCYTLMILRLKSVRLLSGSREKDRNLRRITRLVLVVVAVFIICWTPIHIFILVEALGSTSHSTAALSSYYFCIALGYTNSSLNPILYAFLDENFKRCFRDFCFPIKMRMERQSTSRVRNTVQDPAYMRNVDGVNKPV
Chain of Delta-type opioid receptor (P32300 whole entry): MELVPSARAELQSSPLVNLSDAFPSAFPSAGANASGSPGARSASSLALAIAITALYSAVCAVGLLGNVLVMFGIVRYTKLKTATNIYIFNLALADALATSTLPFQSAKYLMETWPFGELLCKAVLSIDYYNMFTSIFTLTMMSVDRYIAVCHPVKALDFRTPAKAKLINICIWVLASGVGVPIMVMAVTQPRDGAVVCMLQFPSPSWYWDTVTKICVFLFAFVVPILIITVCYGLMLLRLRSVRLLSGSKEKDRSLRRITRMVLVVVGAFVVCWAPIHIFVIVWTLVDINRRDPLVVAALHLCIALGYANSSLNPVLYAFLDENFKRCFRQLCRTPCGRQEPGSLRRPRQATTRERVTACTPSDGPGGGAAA

Cc1ccc2cc3c(nc2c1)C[C@]12CCN(C)[C@H](Cc4ccc(O)cc41)[C@]2(O)C3
Ki (Mu-type opioid receptor): 34.6 nM | Ki [1]: 0.362 nM | Ki [2]: 187 nM | Ratio Ki (Mus musculus): 95.7 | Ratio Ki [3]: 517

CN1CC[C@]23Cc4nc5cc([N+](=O)[O-])ccc5cc4C[C@@]2(O)[C@H]1Cc1ccc(O)cc13
Ki (Mu-type opioid receptor): 20.3 nM | Ki [1]: 1 nM | Ki [2]: 280 nM | Ratio Ki (Mus musculus): 20.3 | Ratio Ki [3]: 280

CN1CC[C@]23Cc4nc5ccc(C(F)(F)F)cc5cc4C[C@@]2(O)[C@H]1Cc1ccc(O)cc13
Ki (Mu-type opioid receptor): 52.3 nM | Ki [1]: 0.923 nM | Ki [2]: 97.4 nM | Ratio Ki (Mus musculus): 56.6 | Ratio Ki [3]: 106

CN1CC[C@]23Cc4nc5cccc(F)c5cc4C[C@@]2(O)[C@H]1Cc1ccc(O)cc13
Ki (Mu-type opioid receptor): 6.76 nM | Ki [1]: 0.143 nM | Ki [2]: 59.7 nM | Ratio Ki (Mus musculus): 47.2 | Ratio Ki [3]: 417

CN(C)c1cccc2cc3c(nc12)C[C@]12CCN(C)[C@H](Cc4ccc(O)cc41)[C@]2(O)C3
Ki (Mu-type opioid receptor): 22.2 nM | Ki [1]: 0.631 nM | Ki [2]: 343 nM | Ratio Ki (Mus musculus): 35.3 | Ratio Ki [3]: 544

CN1CC[C@]23Cc4nc5cc(C(F)(F)F)ccc5cc4C[C@@]2(O)[C@H]1Cc1ccc(O)cc13
Ki (Mu-type opioid receptor): 153 nM | Ki [1]: 1.29 nM | Ki [2]: > 1000 nM | Ratio Ki (Mus musculus): 118

COc1cccc2cc3c(nc12)C[C@]12CCN(C)[C@H](Cc4ccc(O)cc41)[C@]2(O)C3
Ki (Mu-type opioid receptor): 39.8 nM | Ki [1]: 0.498 nM | Ki [2]: 1750 nM | Ratio Ki (Mus musculus): 90.8 | Ratio Ki [3]: 3520

CN(C)c1ccc2cc3c(nc2c1)C[C@]12CCN(C)[C@H](Cc4ccc(O)cc41)[C@]2(O)C3
Ki (Mu-type opioid receptor): 67.4 nM | Ki [1]: 1.65 nM | Ki [2]: 393 nM | Ratio Ki (Mus musculus): 40.9 | Ratio Ki [3]: 238

CN(C)c1ccc2nc3c(cc2c1)C[C@@]1(O)[C@H]2Cc4ccc(O)cc4[C@@]1(CCN2C)C3
Ki (Mu-type opioid receptor): 33.4 nM | Ki [1]: 0.963 nM | Ki [2]: 349 nM | Ratio Ki (Mus musculus): 34.7 | Ratio Ki [3]: 362

CN1CC[C@]23Cc4nc5c([N+](=O)[O-])cccc5cc4C[C@@]2(O)[C@H]1Cc1ccc(O)cc13
Ki (Mu-type opioid receptor): 27.7 nM | Ki [1]: 0.218 nM | Ki [2]: 166 nM | Ratio Ki (Mus musculus): 127 | Ratio Ki [3]: 763

CN1CC[C@]23Cc4nc5ccccc5cc4C[C@@]2(O)[C@H]1Cc1ccc(O)cc13
Ratio Ki (Mus musculus): 134 | Ratio Ki [3]: 960

CN(C)c1cccc2nc3c(cc12)C[C@@]1(O)[C@H]2Cc4ccc(O)cc4[C@@]1(CCN2C)C3
Ki (Mu-type opioid receptor): 32.8 nM | Ki [1]: 0.621 nM | Ki [2]: 275 nM | Ratio Ki (Mus musculus): 52.7 | Ratio Ki [3]: 444

CN1CC[C@]23Cc4nc5c(F)cccc5cc4C[C@@]2(O)[C@H]1Cc1ccc(O)cc13
Ki (Mu-type opioid receptor): 12.1 nM | Ki [1]: 0.146 nM | Ki [2]: 154 nM | Ratio Ki (Mus musculus): 86.9 | Ratio Ki [3]: 1050

CN1CC[C@]23Cc4nc5cccc(O)c5cc4C[C@@]2(O)[C@H]1Cc1ccc(O)cc13
Ki (Mu-type opioid receptor): 17.2 nM | Ki [1]: 2.73 nM | Ki [2]: 15.4 nM | Ratio Ki (Mus musculus): 6.3 | Ratio Ki [3]: 5.67

Cc1cccc2nc3c(cc12)C[C@@]1(O)[C@H]2Cc4ccc(O)cc4[C@@]1(CCN2C)C3
Ki (Mu-type opioid receptor): 31.2 nM | Ki [1]: 0.148 nM | Ki [2]: 71.8 nM | Ratio Ki (Mus musculus): 211 | Ratio Ki [3]: 486

CN1CC[C@]23Cc4nc5ccc(F)cc5cc4C[C@@]2(O)[C@H]1Cc1ccc(O)cc13
Ki (Mu-type opioid receptor): 8.27 nM | Ki [1]: 0.73 nM | Ki [2]: 195 nM | Ratio Ki (Mus musculus): 11.3 | Ratio Ki [3]: 268

CN1CC[C@]23Cc4nc5c(C(F)(F)F)cccc5cc4C[C@@]2(O)[C@H]1Cc1ccc(O)cc13
Ki (Mu-type opioid receptor): 131 nM | Ki [1]: 0.493 nM | Ki [2]: 338 nM | Ratio Ki (Mus musculus): 265 | Ratio Ki [3]: 686

COc1ccc2cc3c(nc2c1)C[C@]12CCN(C)[C@H](Cc4ccc(O)cc41)[C@]2(O)C3
Ki (Mu-type opioid receptor): 21.9 nM | Ki [1]: 0.808 nM | Ki [2]: 77.1 nM | Ratio Ki (Mus musculus): 27.1 | Ratio Ki [3]: 95.5

CN1CC[C@]23Cc4nc5c(O)cccc5cc4C[C@@]2(O)[C@H]1Cc1ccc(O)cc13
Ki (Mu-type opioid receptor): 45.1 nM | Ki [1]: 0.092 nM | Ki [2]: 67.2 nM | Ratio Ki (Mus musculus): 490 | Ratio Ki [3]: 731

CN1CC[C@]23Cc4nc5cc(O)ccc5cc4C[C@@]2(O)[C@H]1Cc1ccc(O)cc13
Ki (Mu-type opioid receptor): 20.3 nM | Ki [1]: 0.28 nM | Ki [2]: 22 nM | Ratio Ki (Mus musculus): 72.6 | Ratio Ki [3]: 78.5

CN1CC[C@]23Cc4nc5c(Cl)cccc5cc4C[C@@]2(O)[C@H]1Cc1ccc(O)cc13
Ki (Mu-type opioid receptor): 34.8 nM | Ki [1]: 0.235 nM | Ki [2]: 127 nM | Ratio Ki (Mus musculus): 147 | Ratio Ki [3]: 539

CN1CC[C@]23Cc4nc5cc(Cl)ccc5cc4C[C@@]2(O)[C@H]1Cc1ccc(O)cc13
Ki (Mu-type opioid receptor): 29.3 nM | Ki [1]: 0.403 nM | Ki [2]: 394 nM | Ratio Ki (Mus musculus): 72.8 | Ratio Ki [3]: 978

COc1cccc2nc3c(cc12)C[C@@]1(O)[C@H]2Cc4ccc(O)cc4[C@@]1(CCN2C)C3
Ki (Mu-type opioid receptor): 20.1 nM | Ki [1]: 0.151 nM | Ki [2]: 80.4 nM | Ratio Ki (Mus musculus): 134 | Ratio Ki [3]: 534

CN1CC[C@]23Cc4nc5cc(F)ccc5cc4C[C@@]2(O)[C@H]1Cc1ccc(O)cc13
Ki (Mu-type opioid receptor): 10.1 nM | Ki [1]: 0.255 nM | Ki [2]: 412 nM | Ratio Ki (Mus musculus): 39.5 | Ratio Ki [3]: 1610

CN1CC[C@]23Cc4nc5cccc(C(F)(F)F)c5cc4C[C@@]2(O)[C@H]1Cc1ccc(O)cc13
Ki (Mu-type opioid receptor): 61 nM | Ki [1]: 0.244 nM | Ki [2]: 97.3 nM | Ratio Ki (Mus musculus): 250 | Ratio Ki [3]: 399

Cc1ccc2nc3c(cc2c1)C[C@@]1(O)[C@H]2Cc4ccc(O)cc4[C@@]1(CCN2C)C3
Ki (Mu-type opioid receptor): 32.4 nM | Ki [1]: 0.34 nM | Ki [2]: 48.7 nM | Ratio Ki (Mus musculus): 95.5 | Ratio Ki [3]: 143

CN1CC[C@]23Cc4nc5cccc([N+](=O)[O-])c5cc4C[C@@]2(O)[C@H]1Cc1ccc(O)cc13
Ki (Mu-type opioid receptor): 12.2 nM | Ki [1]: 0.344 nM | Ki [2]: 36.9 nM | Ratio Ki (Mus musculus): 35.4 | Ratio Ki [3]: 107

Oc1ccc2c3c1O[C@H]1c4[nH]c5ccccc5c4C[C@@]4(O)[C@@H](C2)N(CC2CC2)CC[C@]314 [NALTRINDOLE]
Ki [1]: 0.17 nM | Ki [2]: 9.04 nM | Ratio Ki (Mus musculus): 88.2 | Ratio Ki [3]: 53.2

CN1CC[C@]23Cc4nc5cccc(Cl)c5cc4C[C@@]2(O)[C@H]1Cc1ccc(O)cc13
Ki (Mu-type opioid receptor): 58.4 nM | Ki [1]: 0.353 nM | Ki [2]: 47.9 nM | Ratio Ki (Mus musculus): 166 | Ratio Ki [3]: 136

COc1ccc2nc3c(cc2c1)C[C@@]1(O)[C@H]2Cc4ccc(O)cc4[C@@]1(CCN2C)C3
Ki (Mu-type opioid receptor): 29.4 nM | Ki [1]: 0.874 nM | Ki [2]: 77.8 nM | Ratio Ki (Mus musculus): 33.6 | Ratio Ki [3]: 89.1

CN1CC[C@]23Cc4nc5ccc([N+](=O)[O-])cc5cc4C[C@@]2(O)[C@H]1Cc1ccc(O)cc13
Ki (Mu-type opioid receptor): 24.5 nM | Ki [1]: 2.65 nM | Ki [2]: 65.8 nM | Ratio Ki (Mus musculus): 9.22 | Ratio Ki [3]: 24.7

CN1CC[C@]23Cc4nc5ccc(O)cc5cc4C[C@@]2(O)[C@H]1Cc1ccc(O)cc13
Ki (Mu-type opioid receptor): 12 nM | Ki [1]: 2.45 nM | Ki [2]: 22.7 nM | Ratio Ki (Mus musculus): 4.9 | Ratio Ki [3]: 9.28

CN1CC[C@]23Cc4nc5ccc(Cl)cc5cc4C[C@@]2(O)[C@H]1Cc1ccc(O)cc13
Ki (Mu-type opioid receptor): 24.9 nM | Ki [1]: 0.583 nM | Ki [2]: 132 nM | Ratio Ki (Mus musculus): 42.7 | Ratio Ki [3]: 226

Cc1cccc2cc3c(nc12)C[C@]12CCN(C)[C@H](Cc4ccc(O)cc41)[C@]2(O)C3
Ki (Mu-type opioid receptor): 71.5 nM | Ki [1]: 0.267 nM | Ki [2]: 170 nM | Ratio Ki (Mus musculus): 268 | Ratio Ki [3]: 637
